Measurements taken from patent publication US20090192135A1, “Human Niemann Pick C1-Like 1 Gene (NPC1L1) Polymorphisms and Methods of Use Thereof” (SCHERING CORPORATION, priority 2005, published 2009).

Target: T1, NPC1L1 (Homo sapiens, UniProt Q9UHC9)
T1 construct: from tissue; host or cells: small intestine of hypercholesterolemic patients (in vivo, clinical trial)
T1 sequence (Q9UHC9 22-1332 isoform Q9UHC9-2 limits assumed): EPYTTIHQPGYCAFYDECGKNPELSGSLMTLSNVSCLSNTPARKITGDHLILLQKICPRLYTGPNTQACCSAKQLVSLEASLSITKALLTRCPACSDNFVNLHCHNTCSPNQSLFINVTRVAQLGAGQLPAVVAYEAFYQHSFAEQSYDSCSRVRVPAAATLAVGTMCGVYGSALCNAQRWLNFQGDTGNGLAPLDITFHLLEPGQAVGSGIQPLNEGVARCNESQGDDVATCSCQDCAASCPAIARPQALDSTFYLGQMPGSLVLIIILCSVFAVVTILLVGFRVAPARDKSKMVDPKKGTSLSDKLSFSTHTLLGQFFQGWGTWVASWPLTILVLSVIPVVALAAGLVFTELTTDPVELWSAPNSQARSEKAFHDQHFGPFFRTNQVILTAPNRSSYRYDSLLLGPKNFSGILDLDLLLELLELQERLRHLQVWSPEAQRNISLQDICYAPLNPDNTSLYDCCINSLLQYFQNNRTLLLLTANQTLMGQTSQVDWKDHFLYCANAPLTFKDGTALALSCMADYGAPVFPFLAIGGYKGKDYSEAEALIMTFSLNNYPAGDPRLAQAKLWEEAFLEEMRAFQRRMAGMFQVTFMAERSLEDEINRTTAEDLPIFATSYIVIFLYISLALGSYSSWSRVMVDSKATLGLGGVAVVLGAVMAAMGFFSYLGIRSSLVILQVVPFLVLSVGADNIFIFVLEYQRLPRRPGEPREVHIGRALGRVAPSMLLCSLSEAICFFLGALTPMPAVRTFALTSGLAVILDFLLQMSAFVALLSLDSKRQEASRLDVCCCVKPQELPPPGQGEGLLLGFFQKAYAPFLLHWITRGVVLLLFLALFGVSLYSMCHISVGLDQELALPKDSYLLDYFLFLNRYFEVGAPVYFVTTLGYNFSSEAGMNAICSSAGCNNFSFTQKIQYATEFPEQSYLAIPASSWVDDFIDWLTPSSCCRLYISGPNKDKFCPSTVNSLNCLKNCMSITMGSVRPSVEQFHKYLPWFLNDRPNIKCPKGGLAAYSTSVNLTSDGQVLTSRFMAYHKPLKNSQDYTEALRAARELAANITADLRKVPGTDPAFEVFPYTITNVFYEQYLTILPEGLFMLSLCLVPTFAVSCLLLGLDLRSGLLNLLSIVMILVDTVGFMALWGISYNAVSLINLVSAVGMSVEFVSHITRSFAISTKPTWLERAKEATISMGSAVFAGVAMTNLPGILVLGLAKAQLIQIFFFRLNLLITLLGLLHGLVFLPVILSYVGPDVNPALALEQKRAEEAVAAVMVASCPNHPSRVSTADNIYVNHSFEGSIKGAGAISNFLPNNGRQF
Assay: EASE trial: LDL-C response to six weeks of ezetimibe 10 mg/day added to stable statin therapy, analysed by NPC1L1 genotype/haplotype
Type: in vivo
Details: for Least-Squares (adjusted) Mean (n,/Stderr), percent change in LDL-C: Extreme responders N = 239; for Odds Ratio, extreme responder association with SNP: g.-18C > A; for Adjusted Least Squares Mean, LDL-C response: extreme responder data set
Experimental: Genotyping assays were developed for a number of novel and known common variants with minor allele frequencies greater than 4% that were identified in Example 1. Genetic association analysis was performed with these SNPs in a clinical trial cohort (EASE), described below, to assess whether DNA sequence variants in NPC1L1 are associated with changes in the levels of a variety of plasma cholesterol components in hypercholesterolemia patients in response to pharmacotherapy with ezetimibe and statins as compared to patients treated with a statin and placebo.
To study whether variations in NPC1L1 were associated with response to ezetimibe added to statin therapy, a study population was derived from the Ezetimibe Add-On to Statin for Effectiveness (EASE) Trial (Pearson et al., (2005) Mayo Clinic Proceedings, In Press). The EASE trial was a community-based, randomized, double-blind, placebo controlled study to evaluate the effects of six weeks of ezetimibe, 10 mg/day, added on to a stable regimen of statin therapy, on lipid biomarkers in hypercholesterolemic patients whose LDL-C levels exceeded the National Cholesterol Education Program (NCEP) Adult Treatment Panel (ATP) m guidelines for their coronary heart disease (CHD) risk category. At enrollment, patients taking a stable dose of statin (any dose, any brand) and following a NCEP Step 1 diet or similar cholesterol-lowering diet for at least six weeks prior to entry into the study were randomized to either the ezetimibe (n=2020, 2009 received the treatment) or placebo (n=1010, 1009 received the treatment) arm. From the ezetimibe group, 1208 patients provided consent for genomic analysis and were included in this study. A series of clinical measures corresponding to various cardiovascular risk factors were measured from samples obtained from all trial participants and are summarized by Pearson et al., supra.
Twenty one SNPs from Table 4 (Example 1) were converted to valid genotyping assays, thirteen of which had allele frequencies greater than 2% in all EASE sub-populations. TaqMan Allelic Discrimination assays (Livak, (1999) Genet. Anal. 14:143-49) were performed using Primer Express software and the Assay-by-Design service offered by Applied Biosystems (Foster City, Calif.). […] All probe/primer sets were designed to function using universal reaction and cycling conditions.
The twenty one selected SNPs were genotyped in 1,208 individuals participating in the ezetimibe+statin treatment arm of the EASE trial. A series of clinical measures corresponding to various cardiovascular risk factors were taken on all trial participants (Tables 4a-d). Thirteen selected SNPs genotyped in the EASE cohort were confirmed as having common allele frequencies in this cohort, i.e., an allele frequency of greater than 2% in all EASE sub-populations. […] This could reflect the increased power in the larger EASE cohort to make such detections (see Table 5).
The mean (SD) for total plasma cholesterol, HDL cholesterol (HDL-C), and LDL cholesterol (LDL-C) was 211.0 (34.9), 48.6 (11.5), and 129.1 (30.0) mg/dL, respectively (Pearson et al., supra). […] The distribution of these measurements was similar in the subjects enrolled in this genetic study (Pearson et al., supra). […] No significant associations were found between these response predictive variables and any of the tagging SNPs.
Genetic association analysis was carried out in the EASE cohort with LDL-C response to ezetimibe treatment considered as the primary outcome variable. Individual SNPs, haplotypes, and haplotype combinations were the principal explanatory variables used in the analyses. General linear models were used to estimate the effects of genotypes, haplotypes, and diplotypes on the LDL-C response phenotype. Baseline LDL-C levels, sex, age, and race were investigated to determine if they gave rise to significant effects. Baseline LDL-C levels associated with significant effects in all models and were therefore included in all analyses. […]

In the case of `O=C1[C@H](CC[C@H](O)c2ccc(F)cc2)[C@@H](c2ccc(O)cc2)N1c1ccc(F)cc1` [ezetimibe, 1-(4-fluorophenyl)-3(R)-[3-(4-fluorophenyl)-3(S)-hydroxypropyl]-4(S)-(4-hydroxyphenyl)-2-azetidinone], the “Least-Squares (adjusted) Mean (n,/Stderr), percent change in LDL-C” value (g.1679C > G C/C) is reported as “C/C: −17.49 (143/2.71) %”, the “Least-Squares (adjusted) Mean (n,/Stderr), percent change in LDL-C” value (g.1679C > G C/G) is reported as “C/G: −25.16 (85/3.51) %” and the “Least-Squares (adjusted) Mean (n,/Stderr), percent change in LDL-C” value (g.1679C > G G/G) is reported as “G/G: −40.93 (11/9.76) %”. For the same compound, the “Odds Ratio, extreme responder association with SNP” value (baseline LDL-C as covariate table, extreme responders N = 239, CI (1.59, 5.44)) was “Odds Ratio = 2.94-”, the “Least-Squares (adjusted) Mean, percent change in LDL-C” value (baseline LDL-C as covariate, extreme responders N = 239, g.-18C > A C/C) was “C/C: −17.8%” and the “Least-Squares (adjusted Mean), percent change from baseline LDL-C” value (baseline LDL-C as covariate, g.-18C > A A/A) was −26.5%. The “Least-Squares (adjusted Mean), percent change from baseline LDL-C” value (baseline LDL-C as covariate, g.-18C > A C/A) was −27.9%, the “Least-Squares (adjusted Mean), percent change from baseline LDL-C” value (baseline LDL-C as covariate, g.-18C > A C/C) was −24.2% and the “Least-Squares (adjusted Mean), percent change from baseline LDL-C” value (baseline LDL-C as covariate, g.-133A > G A/A) was −25.9%. The “Least-Squares (adjusted Mean), percent change from baseline LDL-C” value (baseline LDL-C as covariate, g.-133A > G A/G) was −24.8%, the “Least-Squares (adjusted Mean), percent change from baseline LDL-C” value (baseline LDL-C as covariate, g.-133A > G G/G) was −21.9% and the “Least-Squares (adjusted Mean), percent change from baseline LDL-C” value (baseline LDL-C as covariate, g.1679C > G C/C) was −24.5%. The “Least-Squares (adjusted Mean), percent change from baseline LDL-C” value (baseline LDL-C as covariate, g.1679C > G C/G) was −26%, the “Least-Squares (adjusted Mean), percent change from baseline LDL-C” value (baseline LDL-C as covariate, g.1679C > G G/G) was −27.9% and the “Least-Squares (adjusted Mean), percent change from baseline LDL-C” value (baseline LDL-C as covariate, g.19224G > A A/A) was −28.6%. The “Least-Squares (adjusted Mean), percent change from baseline LDL-C” value (baseline LDL-C as covariate, g.19224G > A G/A) was −25.8%, the “Least-Squares (adjusted Mean), percent change from baseline LDL-C” value (baseline LDL-C as covariate, g.19224G > A G/G) was −25% and the “Least-Squares (adjusted Mean), percent change from baseline LDL-C” value (baseline LDL-C as covariate, g.19259T > C C/C) was −26.2%. For the same compound, the “Least-Squares (adjusted Mean), percent change from baseline LDL-C” value (baseline LDL-C as covariate, g.19259T > C T/C) was −25.2%, the “Least-Squares (adjusted Mean), percent change from baseline LDL-C” value (baseline LDL-C as covariate, g.19259T > C T/T) was −25% and the “Least-Squares (adjusted Mean), percent change from baseline LDL-C” value (baseline LDL-C as covariate, g.28650A > G A/A) was −24.3%. For the same compound, the “Least-Squares (adjusted Mean), percent change from baseline LDL-C” value (baseline LDL-C as covariate, g.28650A > G A/G) was −26.6%, the “Least-Squares (adjusted Mean), percent change from baseline LDL-C” value (baseline LDL-C as covariate, g.28650A > G G/G) was −28% and the “additional decrease in absolute LDL-C levels” value (corresponding to a 15% relative increase in LDL-C reductions) was ~5 mg/dL. The “Adjusted Least Squares Mean, LDL-C response” value (diplotype A-A-C / A-C-C) was −38.20%, the “Adjusted Least Squares Mean, LDL-C response” value (diplotype A-A-G / A-C-C) was −34.80% and the “Adjusted Least Squares Mean, LDL-C response” value (diplotype A-A-G / A-C-G) was −40.29%. For the same compound, the “Adjusted Least Squares Mean, LDL-C response” value (diplotype A-A-G / G-C-C) was −29.06%, the “Adjusted Least Squares Mean, LDL-C response” value (diplotype A-C-C / A-C-C) was −21.78% and the “Adjusted Least Squares Mean, LDL-C response” value (diplotype A-C-C / A-C-G) was −4.60%. The “Adjusted Least Squares Mean, LDL-C response” value (diplotype A-C-C / G-C-C) was −14.60%, the “Adjusted Least Squares Mean, LDL-C response” value (diplotype A-C-G / A-C-G) was −41.46% and the “Adjusted Least Squares Mean, LDL-C response” value (diplotype A-C-G / G-C-C) was −24.20%. For the same compound, the “Adjusted Least Squares Mean, LDL-C response” value (diplotype G-C-C / G-C-C) was 3.93%, the “Adjusted Least Squares Mean, LDL-C response” value (diplotype G-C-C / G-C-G) was −66.96% and the “Adjusted Least Squares Mean (stderr), LDL-C response” value (“Adjusted Least Squares Mean (stderr)” below) (extreme responders, 3-SNP haplotype A-A-G, 0 copies (count 181)) was −17.32 (2.38) %. For the same compound, the “Adjusted Least Squares Mean (stderr)” value (extreme responders, 3-SNP haplotype A-A-G, 1 copy (count 58)) was −33.69 (4.21) %, the “Adjusted Least Squares Mean (stderr)” value (extreme responders, 3-SNP haplotype G-C-C, 0 copies (count 139)) was −24.51 (2.75) % and the “Adjusted Least Squares Mean (stderr)” value (extreme responders, 3-SNP haplotype G-C-C, 1 copy (count 92)) was −18.62 (3.38) %. The “Adjusted Least Squares Mean (stderr)” value (extreme responders, 3-SNP haplotype G-C-C, 2 copies (count 8)) was 3.93 (11.45) %, the “mean LDL-C percent response” value (extreme responders, g.−18C>A heterozygotes) was 33.98% and the “increase in efficacy / increased reduction in LDL-C” value (extreme responders, g.−18C>A heterozygotes vs homozygous common allele) was 100%. The “mean LDL-C percent response” value (extreme responders, homozygous for the common allele of g.−18C>A (176/239)) was 16.8%, the “Odds Ratio, extreme responder association with SNP” value (extreme responders N = 239, 95% CI 1.59, 5.44) was “Odds ratio** = 2.94-” and the “increased LDL-C response / greater reduction in LDL-C” value (g.−18C>A minor allele carriers compared to homozygous major allele, EASE cohort) was 15%.
